Assay results reported in ChEMBL document CHEMBL1201862, “PubChem BioAssay data set” (2004).
The source made the active and inactive calls.

Experiments:
[1] = biological target: Alkaline phosphatase, placental type (Homo sapiens, UniProt P05187); experiment: PLAP enzyme inhibitors, confirmation, biochemical, luminescence (AID 1512); format: functional
[2] = biological target: T1, Alkaline phosphatase, tissue-nonspecific isozyme (Homo sapiens, UniProt P05186); experiment: human TNAP enzyme inhibitors, SAR follow-up, biochemical, luminescent, dose response (AID 1056)
T1 sequence (P05186 whole entry): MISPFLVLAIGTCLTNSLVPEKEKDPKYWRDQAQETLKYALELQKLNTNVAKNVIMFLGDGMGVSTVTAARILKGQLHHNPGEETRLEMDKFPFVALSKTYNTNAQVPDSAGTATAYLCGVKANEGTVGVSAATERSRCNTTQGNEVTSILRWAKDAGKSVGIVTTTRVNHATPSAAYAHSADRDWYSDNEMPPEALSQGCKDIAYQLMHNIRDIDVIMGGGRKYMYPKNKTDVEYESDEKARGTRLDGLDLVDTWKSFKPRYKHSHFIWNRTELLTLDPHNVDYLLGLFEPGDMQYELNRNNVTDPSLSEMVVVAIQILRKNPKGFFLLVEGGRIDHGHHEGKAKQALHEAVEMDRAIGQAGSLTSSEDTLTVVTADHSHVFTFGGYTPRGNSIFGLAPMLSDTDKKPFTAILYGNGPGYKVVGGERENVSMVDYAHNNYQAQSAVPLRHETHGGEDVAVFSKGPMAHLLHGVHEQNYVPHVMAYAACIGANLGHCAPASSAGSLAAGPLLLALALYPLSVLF

[3] = biological target: T2, Tyrosine-protein phosphatase non-receptor type 7 (Homo sapiens, UniProt P35236); format: functional
T2 sequence (P35236 whole entry): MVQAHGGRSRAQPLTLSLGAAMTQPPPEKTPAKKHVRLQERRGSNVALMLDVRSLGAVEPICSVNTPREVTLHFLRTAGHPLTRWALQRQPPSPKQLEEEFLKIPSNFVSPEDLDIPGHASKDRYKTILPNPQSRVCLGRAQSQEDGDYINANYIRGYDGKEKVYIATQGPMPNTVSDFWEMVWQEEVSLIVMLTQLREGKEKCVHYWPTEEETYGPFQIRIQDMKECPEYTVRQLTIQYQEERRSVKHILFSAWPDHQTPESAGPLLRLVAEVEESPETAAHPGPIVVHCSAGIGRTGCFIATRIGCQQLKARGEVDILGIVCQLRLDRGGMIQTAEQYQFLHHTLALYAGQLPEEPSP

[4] = biological target: T3, Tyrosine-protein phosphatase non-receptor type 22 (Homo sapiens, UniProt Q9Y2R2); format: functional
T3 sequence (Q9Y2R2 whole entry): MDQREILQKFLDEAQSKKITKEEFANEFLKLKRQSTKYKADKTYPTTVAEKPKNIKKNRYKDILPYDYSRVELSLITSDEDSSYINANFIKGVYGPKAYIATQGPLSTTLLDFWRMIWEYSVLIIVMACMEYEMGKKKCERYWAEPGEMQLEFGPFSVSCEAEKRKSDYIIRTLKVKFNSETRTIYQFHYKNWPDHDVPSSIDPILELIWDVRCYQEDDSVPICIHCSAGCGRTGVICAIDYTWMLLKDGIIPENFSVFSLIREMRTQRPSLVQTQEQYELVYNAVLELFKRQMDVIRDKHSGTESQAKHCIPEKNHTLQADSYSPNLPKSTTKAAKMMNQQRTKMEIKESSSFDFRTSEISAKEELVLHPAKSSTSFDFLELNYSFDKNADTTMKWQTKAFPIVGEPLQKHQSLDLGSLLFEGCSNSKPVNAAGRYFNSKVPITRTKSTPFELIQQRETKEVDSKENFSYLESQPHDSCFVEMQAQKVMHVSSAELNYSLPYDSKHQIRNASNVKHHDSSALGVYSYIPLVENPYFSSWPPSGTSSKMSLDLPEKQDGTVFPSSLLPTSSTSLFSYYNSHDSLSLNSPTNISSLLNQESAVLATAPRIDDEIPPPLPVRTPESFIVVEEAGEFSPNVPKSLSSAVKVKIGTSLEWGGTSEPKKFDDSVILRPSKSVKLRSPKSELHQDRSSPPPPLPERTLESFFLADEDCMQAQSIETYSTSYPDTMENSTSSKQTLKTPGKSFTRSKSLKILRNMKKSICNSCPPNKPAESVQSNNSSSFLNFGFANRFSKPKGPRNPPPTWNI

[5] = biological target: T3, Tyrosine-protein phosphatase non-receptor type 22; format: functional; remark: listed apart in the source
[6] = biological target: Glyceraldehyde-3-phosphate dehydrogenase (Homo sapiens, UniProt P04406)
SUMO-activating enzyme = SUMO-activating enzyme (Homo sapiens, UniProt Q9UBT2); experiment: SUMOylation inhibitor hit validation, confirmation, SUMOylation inhibitor project, biochemical, AlphaScreen (AID 2018); format: functional
[7] = biological target: T4, RNA-binding protein pos-1 (Caenorhabditis elegans, UniProt G5EF15); experiment: inhibitors of POS-1/mex-3 RNA binding, dose response, biochemical, fluorescence polarization (AID 1964);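 note: purified POS-1 fused to maltose binding protein made in E. coli; potency of compounds blocking POS-1 binding to fluorescent RNA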
T4 sequence (G5EF15 whole entry): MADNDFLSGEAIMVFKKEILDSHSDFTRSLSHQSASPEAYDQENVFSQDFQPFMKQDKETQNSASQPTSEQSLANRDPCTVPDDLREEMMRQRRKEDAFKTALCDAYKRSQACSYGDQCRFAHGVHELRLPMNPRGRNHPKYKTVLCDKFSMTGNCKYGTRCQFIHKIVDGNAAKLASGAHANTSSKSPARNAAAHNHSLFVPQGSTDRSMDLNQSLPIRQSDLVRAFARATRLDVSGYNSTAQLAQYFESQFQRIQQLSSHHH

[8] = biological target: T5, Zinc finger protein mex-5 (Caenorhabditis elegans, UniProt Q9XUB2); experiment: MEX-5/TCR-2 RNA interaction inhibitors, dose response, biochemical, C. elegans, fluorescence polarization (AID 1960)
T5 sequence (Q9XUB2 whole entry): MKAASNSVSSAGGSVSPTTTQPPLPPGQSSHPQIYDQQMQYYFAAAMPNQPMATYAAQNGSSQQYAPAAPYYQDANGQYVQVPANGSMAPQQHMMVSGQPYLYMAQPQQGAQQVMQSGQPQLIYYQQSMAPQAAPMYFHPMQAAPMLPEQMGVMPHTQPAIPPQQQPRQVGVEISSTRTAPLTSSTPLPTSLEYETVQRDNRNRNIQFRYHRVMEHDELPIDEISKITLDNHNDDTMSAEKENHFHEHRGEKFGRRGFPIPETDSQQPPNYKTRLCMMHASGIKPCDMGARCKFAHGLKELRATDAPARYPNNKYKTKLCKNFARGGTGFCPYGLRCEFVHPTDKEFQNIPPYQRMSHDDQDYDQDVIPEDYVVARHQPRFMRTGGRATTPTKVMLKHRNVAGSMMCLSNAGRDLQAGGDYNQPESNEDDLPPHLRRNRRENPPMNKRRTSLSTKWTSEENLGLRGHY

[9] = biological target: T6, G-protein coupled receptor 55 (Homo sapiens, UniProt Q9Y2T6); experiment: GPR55 agonists via beta-arrestin recruitment, primary screen, imaging, U2OS cells, beta-arrestin-GFP redistribution (AID 1961); format: functional
Cannabinoid receptor 1 [10] = biological target: T7, Cannabinoid receptor 1 (Homo sapiens, UniProt P21554); experiment: SAR analysis of agonists of the Cannabinoid Receptor 1 using an Image-Based Assay - Set 3. [Related pubchem assays (depositor defined):AID1961, AID1965]; format: functional
[11] = biological target: T8, G-protein coupled receptor 35 (Homo sapiens, UniProt Q9HC97); experiment: SAR analysis of Agonists of the GPR35 Receptor using an Image-Based Assay - Set 3. [Related pubchem assays (depositor defined):AID1961, AID1965]; format: functional
[12] = biological target: T6, G-protein coupled receptor 55; experiment: SAR analysis of selective Agonists of GPR55 using an Image-Based Assay - Set 2. [Related pubchem assays (depositor defined):AID1961, AID1965]; format: functional
[13] = biological target: T8, G-protein coupled receptor 35; experiment: SAR analysis of Antagonists of the GPR35 Receptor using an Image-Based Assay - Set 4. [Related pubchem assays (depositor defined):[…]]; format: functional
Cannabinoid receptor 2 [14] = biological target: T9, Cannabinoid receptor 2 (Homo sapiens, UniProt P34972); experiment: SAR analysis of agonists of the Cannabinoid Receptor 2 using an Image-Based Assay - Set 2. [Related pubchem assays (depositor defined):AID1961, AID1965]; format: functional
Cannabinoid receptor 1 [15] = biological target: T7, Cannabinoid receptor 1; experiment: SAR analysis of antagonists of the Cannabinoid Receptor 1 using an Image-Based Assay - Set 3. [Related pubchem assays (depositor defined):AID1961, AID1965]; format: functional
Cannabinoid receptor 2 [16] = biological target: T9, Cannabinoid receptor 2; experiment: SAR analysis of antagonists of the Cannabinoid Receptor 2 using an Image-Based Assay - Set 2. [Related pubchem assays (depositor defined):AID1961, AID1965]; format: functional
SN12K1 = experiment: cells; format: functional; conditions: Homo sapiens
[17] = HepG2 cell cytotoxicity, dose response, cytotoxicity control for non-replicating M. tuberculosis project (AID 489018); format: functional; conditions: Mycobacterium tuberculosis
cells [18] = format: functional
Streptococcus = experiment: Group A Streptococcus viability loss, dose response, counter-screen for streptokinase expression inhibitor project, luminescence, BacTiterGlo (AID 1915); format: functional, organism-based;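 note: potency for reduction of bacterial viability or growth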
HEK293 = experiment: inhibitors of LMP1-driven NF-kB reporter, dose response, cell-based, HEK293, luciferase, cherry-pick (AID 588343); format: functional; conditions: Homo sapiens
[19] = inhibitors of intracellular T. cruzi replication, confirmation, NIH3T3 host cells, beta-gal luminescence (AID 2044); format: functional, cell-based;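 note: intracellular parasites grown in NIH/3T3 mouse fibroblasts as host cells; luminescent beta-galactosidase reporter signal from transgenic T. cruzi replicating inside host cells; inhibitors lower the luminescence signal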
[20] = cytotoxicity toward NIH3T3 fibroblasts, dose response, counter-screen, cell-based, ATP luminescence, mouse fibroblasts (AID 2010); format: functional;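 note: cells exposed to compound for about 90 hours before reading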
P388 = experiment: cells; format: functional; conditions: Mus musculus
[21] = tested on: Streptococcus sp. 'group A'; experiment: growth inhibition of control SK(-) GAS strain, dose response, counter-screen for streptokinase expression inhibitor project, luminescence, kanamycin, BacTiterGlo, confirmation (AID 1900); format: functional, organism-based
[22] = microbe, parasite or virus in culture; format: functional; conditions: Mycobacterium tuberculosis
[23] = THP-1 cell cytotoxicity, dose response, cytotoxicity control for non-replicating M. tuberculosis project (AID 489025); format: functional
cells [24] = experiment: cells
P388/ADR = experiment: cells; format: functional; conditions: Mus musculus

T8 sequence (Q9HC97 whole entry): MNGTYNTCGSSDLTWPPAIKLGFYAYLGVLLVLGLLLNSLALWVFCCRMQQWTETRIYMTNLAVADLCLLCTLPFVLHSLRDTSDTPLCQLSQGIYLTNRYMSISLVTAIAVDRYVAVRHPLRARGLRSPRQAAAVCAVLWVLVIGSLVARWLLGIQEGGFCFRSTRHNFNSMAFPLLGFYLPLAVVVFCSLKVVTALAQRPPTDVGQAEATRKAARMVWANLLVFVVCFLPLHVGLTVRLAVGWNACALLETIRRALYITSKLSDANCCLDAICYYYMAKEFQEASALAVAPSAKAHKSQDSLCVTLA
T6 sequence (Q9Y2T6 whole entry): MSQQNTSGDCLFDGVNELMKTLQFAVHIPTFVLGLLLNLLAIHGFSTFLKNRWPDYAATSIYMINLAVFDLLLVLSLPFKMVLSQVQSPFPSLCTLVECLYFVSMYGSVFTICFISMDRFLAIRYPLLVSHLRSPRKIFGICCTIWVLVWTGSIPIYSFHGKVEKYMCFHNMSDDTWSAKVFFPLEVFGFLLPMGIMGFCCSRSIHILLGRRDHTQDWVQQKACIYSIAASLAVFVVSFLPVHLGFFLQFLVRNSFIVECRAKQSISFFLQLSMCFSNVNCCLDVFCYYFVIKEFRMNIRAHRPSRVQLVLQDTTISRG
T9 sequence (P34972 whole entry): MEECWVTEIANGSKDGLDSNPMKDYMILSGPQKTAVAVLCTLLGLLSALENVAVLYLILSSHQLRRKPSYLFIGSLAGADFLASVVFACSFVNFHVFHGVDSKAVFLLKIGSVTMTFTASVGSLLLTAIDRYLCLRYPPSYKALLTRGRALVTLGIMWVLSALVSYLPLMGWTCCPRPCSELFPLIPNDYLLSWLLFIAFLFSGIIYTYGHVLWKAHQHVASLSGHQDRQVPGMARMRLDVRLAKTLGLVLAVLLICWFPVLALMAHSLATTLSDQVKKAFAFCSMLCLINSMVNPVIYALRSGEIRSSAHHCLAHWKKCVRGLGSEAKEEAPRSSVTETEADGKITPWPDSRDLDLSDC
T7 sequence (P21554 whole entry): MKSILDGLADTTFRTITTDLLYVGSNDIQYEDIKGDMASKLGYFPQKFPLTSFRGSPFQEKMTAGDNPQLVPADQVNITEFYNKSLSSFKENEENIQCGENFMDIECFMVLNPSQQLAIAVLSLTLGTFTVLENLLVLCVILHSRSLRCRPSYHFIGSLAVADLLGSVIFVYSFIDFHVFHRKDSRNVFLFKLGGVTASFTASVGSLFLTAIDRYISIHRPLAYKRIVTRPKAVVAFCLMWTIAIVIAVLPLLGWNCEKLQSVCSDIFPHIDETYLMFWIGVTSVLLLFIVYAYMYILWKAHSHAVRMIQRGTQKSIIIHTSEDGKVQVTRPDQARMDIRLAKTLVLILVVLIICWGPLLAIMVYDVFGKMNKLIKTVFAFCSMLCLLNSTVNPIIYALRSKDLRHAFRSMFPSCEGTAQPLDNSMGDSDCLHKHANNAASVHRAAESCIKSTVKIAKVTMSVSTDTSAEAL
Sequence of Alkaline phosphatase, placental type (P05187 whole entry): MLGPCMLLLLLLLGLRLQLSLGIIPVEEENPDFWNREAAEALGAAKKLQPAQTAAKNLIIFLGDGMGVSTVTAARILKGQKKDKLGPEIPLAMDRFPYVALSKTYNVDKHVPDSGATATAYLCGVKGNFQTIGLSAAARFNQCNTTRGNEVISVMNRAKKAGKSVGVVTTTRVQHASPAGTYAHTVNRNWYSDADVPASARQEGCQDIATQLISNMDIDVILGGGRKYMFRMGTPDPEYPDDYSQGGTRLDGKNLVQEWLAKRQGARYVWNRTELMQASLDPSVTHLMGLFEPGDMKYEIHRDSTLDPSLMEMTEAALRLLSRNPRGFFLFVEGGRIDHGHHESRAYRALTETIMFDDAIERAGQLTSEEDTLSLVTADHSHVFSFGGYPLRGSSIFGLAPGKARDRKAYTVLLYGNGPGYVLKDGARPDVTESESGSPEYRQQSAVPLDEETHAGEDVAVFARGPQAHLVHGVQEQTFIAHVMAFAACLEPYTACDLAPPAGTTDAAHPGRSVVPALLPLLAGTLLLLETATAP
Sequence of SUMO-activating enzyme (Q9UBE0 whole entry, the tested form may be a part): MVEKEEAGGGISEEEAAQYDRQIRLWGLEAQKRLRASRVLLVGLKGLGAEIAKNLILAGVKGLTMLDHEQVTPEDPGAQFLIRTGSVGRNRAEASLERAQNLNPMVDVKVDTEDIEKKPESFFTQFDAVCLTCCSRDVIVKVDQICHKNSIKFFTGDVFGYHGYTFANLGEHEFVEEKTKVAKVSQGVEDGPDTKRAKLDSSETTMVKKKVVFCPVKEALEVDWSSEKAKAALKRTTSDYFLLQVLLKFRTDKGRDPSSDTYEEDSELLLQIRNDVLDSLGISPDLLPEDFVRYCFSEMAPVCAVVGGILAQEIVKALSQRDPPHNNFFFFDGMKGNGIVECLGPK
Sequence of SUMO-activating enzyme (Q9UBT2 whole entry, the tested form may be a part): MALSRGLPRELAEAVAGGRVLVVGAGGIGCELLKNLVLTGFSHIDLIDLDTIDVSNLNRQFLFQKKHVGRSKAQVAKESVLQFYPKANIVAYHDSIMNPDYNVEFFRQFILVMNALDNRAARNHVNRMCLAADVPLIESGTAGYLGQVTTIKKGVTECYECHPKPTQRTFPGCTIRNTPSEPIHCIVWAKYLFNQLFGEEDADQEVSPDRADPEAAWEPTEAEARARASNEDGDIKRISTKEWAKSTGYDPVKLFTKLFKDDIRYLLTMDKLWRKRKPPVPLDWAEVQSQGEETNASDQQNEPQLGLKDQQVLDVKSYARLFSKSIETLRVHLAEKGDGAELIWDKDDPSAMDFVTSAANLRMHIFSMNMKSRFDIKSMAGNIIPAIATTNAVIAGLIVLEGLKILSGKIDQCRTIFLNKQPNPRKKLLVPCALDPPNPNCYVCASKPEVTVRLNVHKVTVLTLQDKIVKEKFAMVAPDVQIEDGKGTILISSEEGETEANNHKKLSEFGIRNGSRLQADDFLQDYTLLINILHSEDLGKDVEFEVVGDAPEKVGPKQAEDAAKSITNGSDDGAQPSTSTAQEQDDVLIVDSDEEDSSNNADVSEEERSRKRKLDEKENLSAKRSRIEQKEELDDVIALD
Sequence of Glyceraldehyde-3-phosphate dehydrogenase (P04406 whole entry): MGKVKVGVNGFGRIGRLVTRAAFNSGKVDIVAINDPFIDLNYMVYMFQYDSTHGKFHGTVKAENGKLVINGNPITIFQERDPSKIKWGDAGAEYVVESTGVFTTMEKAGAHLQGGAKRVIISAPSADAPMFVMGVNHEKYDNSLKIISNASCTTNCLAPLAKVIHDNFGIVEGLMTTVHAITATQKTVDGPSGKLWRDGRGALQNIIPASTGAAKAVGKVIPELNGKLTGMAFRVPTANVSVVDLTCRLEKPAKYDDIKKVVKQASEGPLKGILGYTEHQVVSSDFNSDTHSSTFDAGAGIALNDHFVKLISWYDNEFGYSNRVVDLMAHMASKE

Structure (SMILES): C=CCN1C(=O)NC2(O)C(=O)c3ccccc3C12O (centres undefined)
- IC50 [1]: 12.7 µM (active)
- IC50 [2]: 56.3 µM (active)

Structure (SMILES): CC(C)Cc1nc(S(=O)(=O)c2ccc(Cl)cc2)c(N2CCOCC2)o1
- IC50 [3]: > 79.4 µM (inactive)
- IC50 [4]: > 79.4 µM (inactive)
- IC50 [5]: > 79.4 µM (inactive)

Structure (SMILES): CCCc1nn(C(C)=O)c2c1C(=O)CC(C)(C)C2
- IC50 [6]: > 100 µM (not active)
- IC50 [1]: > 100 µM (inactive)
- IC50 [2]: 19.1 µM (active)

Structure (SMILES): NC(=O)CC(NC(=O)Cc1ccc(Br)cc1)c1ccc(NCCc2ccccc2F)c([N+](=O)[O-])c1 (centres undefined)
- IC50 (SUMO-activating enzyme): 78.2 µM (active)

Structure (SMILES): COc1cc2c(cc1OC)C(c1ccc(-c3ccc(Cl)cc3Cl)o1)=NCC2
- EC50 [7]: > 300 µM (not active)
- EC50 [8]: > 300 µM (not active)
- EC50 [9]: > 32 µM (inactive)

Structure (SMILES): COc1ccc(S(=O)(=O)N2CCOCC2)cc1NC(=O)c1sc2cccc(F)c2c1C
- EC50 (Cannabinoid receptor 1 [10]): > 32 µM (inactive)
- EC50 [11]: > 32 µM (inactive)
- EC50 [12]: > 32 µM (inactive)
- IC50 [13]: > 32 µM (inactive)
- EC50 (Cannabinoid receptor 2 [14]): > 32 µM (inactive)
- IC50 (Cannabinoid receptor 1 [15]): > 32 µM (inactive)
- IC50 (Cannabinoid receptor 2 [16]): > 32 µM (inactive)

Structure (SMILES): CN(C)S(=O)(=O)c1ccc(N2CCCC2)c(C(=O)N2CCN(c3ccccc3)CC2)c1
- EC50 (Cannabinoid receptor 1 [10]): > 32 µM (inactive)
- EC50 [11]: > 32 µM (inactive)
- EC50 [12]: 1.67 µM (active)
- IC50 [13]: > 32 µM (inactive)
- EC50 (Cannabinoid receptor 2 [14]): > 32 µM (inactive)
- IC50 (Cannabinoid receptor 1 [15]): > 32 µM (inactive)
- IC50 (Cannabinoid receptor 2 [16]): > 32 µM (inactive)

Structure (SMILES): CO[C@@]12[C@H](COC(N)=O)C3=C(C(=O)C(C)=C(N)C3=O)N1C[C@H]1[C@@H]2N1C (some centres undefined) [PORFIROMYCIN]
- GI50 (SN12K1): 3.9 µM (inactive)
- CC50 [17]: > 20 µM (active)
- IC50 (cells [18]): 0.65 µM (active)
- EC50 (Streptococcus): < 0.06 µM (active)
- AC50 (HEK293): 4.01 µM (active)
- EC50 [19]: < 0.1 µM (active)
- EC50 [20]: 6.8 µM (active)
- GI50 (P388): 1.88 µM (inactive)
- EC50 [21]: < 0.06 µM (active)
- CC50 [22]: 28.3 µM (active)
- CC50 [23]: 1.32 µM (active)
- EC50 (cells [24]): 0.088 µM (active)
- GI50 (P388/ADR): 7.74 µM (inactive)
